Conditions: 313.14 K, Liquid, Vibrating tube method

CCCCCCCCCC [decane]
Conditions	mass density [kg/m3]
24173 kPa	733.5
24196 kPa	733.5
24223 kPa	733.4
24245 kPa	733.5
24268 kPa	733.6
24304 kPa	733.6
24331 kPa	733.6
24351 kPa	733.6
24391 kPa	733.7
24420 kPa	733.7
24455 kPa	733.7
24491 kPa	733.7
24527 kPa	733.7
24559 kPa	733.8
24591 kPa	733.7
24632 kPa	733.9
24668 kPa	733.9
24704 kPa	733.9
24729 kPa	733.9
24758 kPa	734
24787 kPa	733.9
24824 kPa	733.9
24854 kPa	734
24889 kPa	734
24918 kPa	734.1
24952 kPa	734
24983 kPa	734
25018 kPa	734.1
25049 kPa	734.2
25080 kPa	734.1
25107 kPa	734.2
25129 kPa	734.2
25161 kPa	734.2
25188 kPa	734.2
25215 kPa	734.2
25255 kPa	734.3
25287 kPa	734.3
25323 kPa	734.3
25351 kPa	734.4
25387 kPa	734.3
25415 kPa	734.3
25452 kPa	734.5
25489 kPa	734.4
25558 kPa	734.6
25618 kPa	734.5
25650 kPa	734.6
25684 kPa	734.6
25712 kPa	734.5
25750 kPa	734.5
25778 kPa	734.6
25811 kPa	734.6
25840 kPa	734.7
25878 kPa	734.8
27095 kPa	735.5
27127 kPa	735.5
27155 kPa	735.6
27178 kPa	735.5
27206 kPa	735.6
27239 kPa	735.7
27267 kPa	735.7
27295 kPa	735.5
27328 kPa	735.7
27370 kPa	735.7
27403 kPa	735.7
27432 kPa	735.8
27465 kPa	735.8
27498 kPa	735.7
27527 kPa	735.8
27560 kPa	735.9
27599 kPa	735.8
27627 kPa	735.8
27661 kPa	735.9
27685 kPa	735.8
27728 kPa	735.9
27767 kPa	736
27811 kPa	736
27850 kPa	735.9
27898 kPa	736.1
27932 kPa	736.2
29093 kPa	736.8
29131 kPa	736.9
29195 kPa	737
29243 kPa	737
29286 kPa	736.9
29330 kPa	737.1
29369 kPa	737.1
29414 kPa	737
29452 kPa	737.1
29496 kPa	737.2
29524 kPa	737.1
29568 kPa	737.2
29611 kPa	737.2
29645 kPa	737.3
29684 kPa	737.2
29729 kPa	737.2
29763 kPa	737.3
29809 kPa	737.3
29845 kPa	737.3
29878 kPa	737.3
29923 kPa	737.4
29963 kPa	737.5
30003 kPa	737.5
30049 kPa	737.5
30089 kPa	737.6
30124 kPa	737.6
30171 kPa	737.5
30212 kPa	737.5
30248 kPa	737.6
30281 kPa	737.7
30319 kPa	737.6
30352 kPa	737.7
30401 kPa	737.8
30433 kPa	737.7
30466 kPa	737.8
30504 kPa	737.8
30542 kPa	737.8
30575 kPa	737.8
30614 kPa	737.9
31015 kPa	738.1
31049 kPa	738
31124 kPa	738.2
31165 kPa	738.2
31205 kPa	738.3
31251 kPa	738.3
31303 kPa	738.3
31332 kPa	738.3
31379 kPa	738.3
32818 kPa	739.4
32847 kPa	739.2
32891 kPa	739.4
32920 kPa	739.3
32965 kPa	739.4
33007 kPa	739.5
33037 kPa	739.5
33079 kPa	739.5
33103 kPa	739.6
33135 kPa	739.5

Source: the NIST ThermoML archive (doi:10.1021/je800110r)
